Results on three compounds are retold here after BindingDB's records for doi:10.1016/S0960-894X(00)80622-8 (1992).

Bounds are passed on as bounds.

The assay is described as follows: Compound was evaluated for inhibition against Phospholipase A2 of Croatalus adamanteus.
Turning to `CC(=O)ON(C=CC(=O)c1ccc(F)cc1)Cc1ccccc1` [1-(4-fluorophenyl)-3-benzyl-3-acetyloxyamino-propenone], the half-maximal inhibitory concentration (IC50) – broadly, the point on the concentration scale where inhibition reaches its midpoint – was over 1000 µM. With `O=C(/C=C\N(O)C1CCCCC1)c1ccc(F)cc1`, the 50% inhibitory concentration (IC50) was over 1000 µM. The result for `CON(/C=C\C(=O)c1ccc(F)cc1)Cc1ccccc1` [(Z)-3-(Benzyl-methoxy-amino)-1-(4-fluoro-phenyl)-propenone] reads over 1000 µM.
